Experimental data as given in US20150111737A1, “SYNERGISTIC PESTICIDAL COMPOSITIONS AND RELATED METHODS” (Dow AgroSciences LLC, priority 2013, published 2015).

Test system: diamondback moth, Plutella xylostella
Assay: Cabbage leaf bioassay (track sprayer) against second instar diamondback moth; synergy judged by Colby's equation
Assay type: in vivo
Settings: single active, dose rate 0.0025 weight %, 400 L/Ha spray
Text: The method described in Colby S. R., “Calculating Synergistic and Antagonistic Responses of Herbicide Combinations,” Weeds, 1967, 15, 20-22 was used to determine an existence of synergic effect between the juvenile hormone mimicking compound and the pesticide (I), (II), or any agriculturally acceptable salt thereof in the formulated pesticidal composition. In this method, the percent insect control of the formulated pesticidal composition as observed in the study was compared to the “expected” percent control (E) as calculated by equation (1) (hereinafter “Colby's equation”) below: […]
Bioassays were performed for different active compounds. Cabbage plants with about two to three new-growth-true leaf stage were treated with different active compounds using a track sprayer application at 400 L/Ha spray volume. Three second instar diamondback moths, Plutella xylostella, were infested onto each leaf disc. The percent control of the pesticidal composition against diamondback moth, Plutella xylostella, was determined as the “Observed” action, and compared to those obtained by using about 0.0025 weight % of Compound II, and using about 0.000391 weight % of pyriproxyfen alone. The “Colby's Expected Action” was calculated using Colby's equation as discussed previously. […]
The percent control may be determined some time after treatment.

| Structure (SMILES) | % Control Three Days After Treatment [%] |
| --- | --- |
| CCN(C(=O)CC[S+]([O-])CCC(F)(F)F)c1cn(-c2cccnc2)nc1Cl (centres unmarked) [Compound II, N-(3-chloro-1-(pyridin-3-yl)-1H-pyrazol-4-yl)-N-ethyl-3-((3,3,3-trifluoropropyl)sulfinyl)propanamide] | 0 |
| CCN(C(=O)CCSCCC(F)(F)F)c1cn(-c2cccnc2)nc1Cl [Compound I, N-(3-chloro-1-(pyridin-3-yl)-1H-pyrazol-4-yl)-N-ethyl-3-((3,3,3-trifluoropropyl)thio)propanamide] | 0 |
